Article PMC10185643, “Improved LC–MS identification of short homologous peptides using sequence-specific retention time predictors” (Analytical and Bioanalytical Chemistry, 2023)

Test: Reversed-phase LC-MS experimental retention time of short peptides
Assay type: physicochemical
Settings: for RT: experimental retention time, reversed-phase LC-MS, Table S1, column Source gives the peptide's origin (1-4 = synthesis route of homologous peptides, enzyme)
Protocol: All analyses were performed on an UltiMate 3000 RS chromatography system equipped with a UV detector, connected to a Q-Exactive Plus Hybrid Quadrupole-Orbitrap mass spectrometer (Thermo Fischer Scientific, Waltham, MA, USA). An Xselect Peptide CSH C18 130 Å column (particle size 2.5 µm, dimensions 150 × 2.1 mm, Waters, Etten-Leur, the Netherlands) with associated VanGuard pre-column was used for the separations. The analytes were eluted at a flow rate of 0.35 ml/min using a linear gradient of water (solvent A) and acetonitrile (solvent B) both fortified with 0.1% formic acid. […] The column temperature was maintained at 40 °C and the auto-sampler at 4 °C. The injection volume was 5 µL.
The sheath gas was set to 48 arbitrary units, the auxiliary gas was set to 11 arbitrary units, and the spray voltage was set to 3.7 kV. The mass spectrometer was set to operate in full-scan MS data-dependent MS^2 (ddMS^2) mode. Full-scan spectra were acquired at a resolution of 70.000 in the m/z range 80–1200 using a maximum ion injection time of 100 ms, unless stated otherwise. […] The maximum injection time was set to 150 ms, and a normalized stepped collision energy was applied of 15, 30 and 45 arbitrary units.

Substance | RT | RT (retention time) (Table S1, Source: enzyme, experimental reversed-phase LC-MS retention time, decimal comma)
KCEVF | 4,52 | –
CLVR | 4,57 | –
CPFD | – | 13,62
